Assay results as given in PubChem BioAssay AID1963825 (Molecular Pharmacology Branch, DTP, NCI, 2024).
Where “and” joins values, the source holds several entries; their conditions need not be identical. Equal entries are not always repeated.

Test: Anticancer human tumor 997537-175-T-J1-PDC patient-derived colon adenocarcinoma cell line growth inhibition [POLQ]
Details: 997537-175-T-J1-PDC complex spheroid viability, combination with POLQ inhibitors; for viability, T/C: stronger effect = lower value
Protocol: Multicellular complex tumor spheroid response to Polymerase (POL) inhibitors (novobiocin, ART-558, RP6685) in combination with a variety of drugs and investigational agents in selected tumor cell lines
The POL inhibitors (novobiocin, ART-558, and RP6685) were evaluated both individually and in combination with standard of care and investigational anticancer small molecules within a complex spheroid model of solid tumors. . Complex spheroids include a stromal component modeled by human endothelial cells (HUVEC) and fibroblasts modeled by human mesenchymal stem cells (MSCs). The concentration ranges selected for each drug and investigational agent were based upon clinically achievable concentrations if the clinical Cmax of the agent was known.
Compounds. The drugs and investigational agents: novobiocin (NSC847541), ART-558 (NSC835418), RP-6685 (NSC848927), peposertib (NSC802822), ceralasertib (NSC780249), elimusertib (NSC800525), camonsertib (NSC841442), AZD-1390 (NSC803789), olaparib (NSC753686), talazoparib (NSC767125), rucaparib (NSC756644), sotorasib (NSC818433), MRTX-1133 (NSC836407), SN-38 (NSC673596), topotecan (NSC609699), epotoside (NSC141540), doxorubicin (NSC123127), gemcitabine (NSC613327), 5-fluorouracil (NSC19893), paclitaxel (NSC125973), vemurafenib (NSC761431), MSA-2 (NSC828583), SN-011 (NSC837082), adavosertib (NSC754352), prexasertib (NSC758257), carboplatin (NSC241240) and oxaliplatin (NSC266046), were obtained from the National Cancer Institute (NCI) Developmental Therapeutics Program Chemical Repository (21). The FDA-approved anticancer drug set is available from the Developmental Therapeutics Program at https://dtp.cancer.gov/organization/dscb/obtaining/. […] The stock solutions were prepared in dimethyl sulfoxide (DMSO, Sigma-Aldrich, St. Louis, MO, cat. D2650), except for the platinum compounds which were prepared in saline (Quality Biological, Gaithersburg, MD, cat. 114-055-101), at 800-fold the tested concentration and stored at -70 degrees C prior to their use. All drugs and investigational agents were tested over a range starting from a high concentration at or near the clinical Cmax and decreasing in half-log increments. If the clinical Cmax for an agent had not been determined, the highest concentration tested was 10 microM, except for SN-38, which was tested at a high concentration of 1 microM.
Cell Culture. All cells were maintained in an incubator at 37 degrees C and 5% CO2 with 95% humidity. The PDC lines were cultured according to standard operating procedures established by the NCI PDMR (https://pdmr.cancer.gov). Table 3 of the manuscript, lists the cell lines along with the number of the three cell types plated to form the mct-spheroids and media for tumor cell growth. After thawing, all PDC lines, except 997537-175-T-J1-PDC and 415267-285-R-J2-PDC, were cultured in Matrigel-coated flasks prepared with a working solution of 1X Ham's F-12 nutrient mix, without supplementation (Thermo Fisher Scientific, cat. 11765054), 100 U/mL penicillin-streptomycin (Thermo Fisher Scientific, cat. 15140122), and 2.5% Matrigel (Corning Inc., Corning, NY, cat. 354248) for the first three passages. The two PDC lines 997537-175-T-J1-PDC and 415267-285-R-J2-PDC were cultured on uncoated flasks. The 857933-349-R-J2-PDC line was cultured in 6C/Colon 1B media containing advanced DMEM/F-12 (Thermo Fisher Scientific, cat. 12634028), 10 mM HEPES (Thermo Fisher Scientific, cat. 15630080), 1X GlutaMAX supplement (Thermo Fisher Scientific, cat. 35050061), 0.1 mg/mL primocin (InvivoGen, San Diego, CA, cat. ant-pm-2), 10% defined fetal bovine serum, heat inactivated (HyClone Laboratories Inc., Logan, UT, cat. SH30070.03HI), 50% L-WRN conditioned media (ATCC, cat. CRL-3276), 1.25 mM N-Acetyl-L-cysteine (Sigma-Aldrich, cat. A9165), 10 mM nicotinamide (Sigma-Aldrich, cat. N0636), 1X B-27 supplement (Thermo Fisher Scientific, cat. 17504044), 1X N-2 supplement (Thermo Fisher Scientific, cat. […]
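Further: luminescence signal used as a surrogate for viable cells; spheroids exposed to drugs for seven days before readout.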

With `O=C(Nc1ccc(O)c(NS(=O)(=O)c2ccc(F)cc2)c1)c1ccc(-c2ccccc2)cc1` the viability, T/C (compound 0.0316 µM) was 103% and 89.4% and 123%, the viability, T/C (compound 0.1 µM) was 101% and 92.4% and 98.4% and the viability, T/C (compound 0.316 µM) was 113% and 97.4% and 81.8%. For the same compound, the viability, T/C (compound 1 µM) was 88.3% and 109% and 103%, the viability, T/C (compound 3.16 µM) was 99.2% and 116% and 91.7% and the viability, T/C (compound 10 µM) was 98.9% and 103% and 91.2%. For the same compound, the IC50 (curve of compound) was greater than 10 µM.
In the case of `COc1ccc([C@@H](O)c2cc(-c3ncnc4cc(N5CCOCC5)ccc34)c(F)cc2Cl)nn1` + COC1C(OC(N)=O)C(O)C(Oc2ccc3c(O)c(NC(=O)c4ccc(O)c(CC=C(C)C)c4)c(=O)oc3c2C)OC1(C)C, the IC50 (curve of first compound, second compound 0.0316 µM) is reported as greater than 10 µM, the IC50 (curve of first compound, second compound 0.1 µM) is reported as greater than 10 µM and the IC50 (curve of first compound, second compound 0.316 µM) is reported as greater than 10 µM. It also gave an IC50 (curve of first compound, second compound 1 µM) greater than 10 µM, an IC50 (curve of first compound, second compound 3.16 µM) greater than 10 µM and an IC50 (curve of first compound, second compound 10 µM) greater than 10 µM. The viability, T/C (second compound 0.0316 µM, first compound 0.0316 µM) was 116%, the viability, T/C (second compound 0.0316 µM, first compound 0.1 µM) was 115% and the viability, T/C (second compound 0.0316 µM, first compound 0.316 µM) was 110%. The viability, T/C (second compound 0.0316 µM, first compound 1 µM) was 92%, the viability, T/C (second compound 0.0316 µM, first compound 3.16 µM) was 105% and the viability, T/C (second compound 0.0316 µM, first compound 10 µM) was 87.7%. For the same compound, the viability, T/C (second compound 0.1 µM, first compound 0.0316 µM) was 109%, the viability, T/C (second compound 0.1 µM, first compound 0.1 µM) was 103% and the viability, T/C (second compound 0.1 µM, first compound 0.316 µM) was 95.3%. The viability, T/C (second compound 0.1 µM, first compound 1 µM) was 97.5%, the viability, T/C (second compound 0.1 µM, first compound 3.16 µM) was 94.4% and the viability, T/C (second compound 0.1 µM, first compound 10 µM) was 98.5%. The viability, T/C (second compound 0.316 µM, first compound 0.0316 µM) was 107%, the viability, T/C (second compound 0.316 µM, first compound 0.1 µM) was 103% and the viability, T/C (second compound 0.316 µM, first compound 0.316 µM) was 92.5%. For the same compound, the viability, T/C (second compound 0.316 µM, first compound 1 µM) was 96.8%, the viability, T/C (second compound 0.316 µM, first compound 3.16 µM) was 115% and the viability, T/C (second compound 0.316 µM, first compound 10 µM) was 81.7%. For the same compound, the viability, T/C (second compound 1 µM, first compound 0.0316 µM) was 98%, the viability, T/C (second compound 1 µM, first compound 0.1 µM) was 106% and the viability, T/C (second compound 1 µM, first compound 0.316 µM) was 109%. It also gave a viability, T/C (second compound 1 µM, first compound 1 µM) of 92.4%, a viability, T/C (second compound 1 µM, first compound 3.16 µM) of 97.2% and a viability, T/C (second compound 1 µM, first compound 10 µM) of 77.4%. It also gave a viability, T/C (second compound 3.16 µM, first compound 0.0316 µM) of 106%, a viability, T/C (second compound 3.16 µM, first compound 0.1 µM) of 108% and a viability, T/C (second compound 3.16 µM, first compound 0.316 µM) of 109%. It also gave a viability, T/C (second compound 3.16 µM, first compound 1 µM) of 105%, a viability, T/C (second compound 3.16 µM, first compound 3.16 µM) of 93.3% and a viability, T/C (second compound 3.16 µM, first compound 10 µM) of 83.8%. For the same compound, the viability, T/C (second compound 10 µM, first compound 0.0316 µM) was 111%, the viability, T/C (second compound 10 µM, first compound 0.1 µM) was 103% and the viability, T/C (second compound 10 µM, first compound 0.316 µM) was 118%. The viability, T/C (second compound 10 µM, first compound 1 µM) was 83.6%, the viability, T/C (second compound 10 µM, first compound 3.16 µM) was 115% and the viability, T/C (second compound 10 µM, first compound 10 µM) was 114%.
In the case of `CC[C@@]1(O)C(=O)OCc2c1cc1n(c2=O)Cc2cc3c(CN(C)C)c(O)ccc3nc2-1`, the viability, T/C (compound 0.000316 µM) is reported as 100% and 93.8% and 93.3%, the viability, T/C (compound 0.001 µM) is reported as 96.1% and 102% and 112% and the viability, T/C (compound 0.00316 µM) is reported as 98.1% and 91.1% and 111%. For the same compound, the viability, T/C (compound 0.01 µM) was 105% and 101% and 97.3%, the viability, T/C (compound 0.0316 µM) was 94.5% and 75.5% and 93% and the viability, T/C (compound 0.1 µM) was 71.6% and 61.9% (2×). The IC50 (curve of compound) was greater than 0.1 µM.
For `CC1COCCN1c1cc(-c2ccnn2C)c2ccnc(-c3ccn[nH]3)c2n1` (centres undefined), the viability, T/C (compound 0.0316 µM) was 94.7% and 97.9% and 86.9%, the viability, T/C (compound 0.1 µM) was 62% and 63.5% and 79.7% and the viability, T/C (compound 0.316 µM) was 64.5% and 49% and 65.9%. For the same compound, the viability, T/C (compound 1 µM) was 44.2% and 44.4% and 50.7%, the viability, T/C (compound 3.16 µM) was 68% and 32.4% and 51.1% and the viability, T/C (compound 10 µM) was 60.6% and 53.7% and 53.6%.
In the case of `C=CCn1c(=O)c2cnc(Nc3ccc(N4CCN(C)CC4)cc3)nc2n1-c1cccc(C(C)(C)O)n1`, the viability, T/C (compound 0.00316 µM) is reported as 98.4% and 90.3% and 83.5%, the viability, T/C (compound 0.01 µM) is reported as 96.6% and 88.9% and 102% and the viability, T/C (compound 0.0316 µM) is reported as 73.2% and 89.1% and 83.6%. For the same compound, the viability, T/C (compound 0.1 µM) was 94% and 101% and 86.6%, the viability, T/C (compound 0.316 µM) was 95.9% and 94.9% and 76.8% and the viability, T/C (compound 1 µM) was 74.5% and 63.4% and 69.5%. For the same compound, the IC50 (curve of compound) was greater than 1 µM.
